Results as given in patent publication US8324176B2, “Pyrazole derivatives, medicinal composition containing the same, medicinal use thereof, and intermediate for production thereof” (Kissei Pharmaceutical Co., Ltd., priority 2002, dated 2012).

Experiments:
[1] = system: diabetic rats; test: Assay for inhibitory effects on blood glucose level increase in rats (liquid meal tolerance test); format: in vivo, rat; details: test compound 1 mg/kg orally, liquid meal 17.25 kcal/kg, mean±S.E.; for Plasma glucose concentration 0.5 h: 0.5 hour after the drug administration; for Plasma glucose concentration 1 h: 1 hour after the drug administration
Procedure: Assay for Inhibitory Effects on Blood Glucose Level Increase in Rats
1) Preparation of Diabetic Rat Model
Male wistar rats (Japan Charles River), aged 8 weeks old, were injected nicotinamide (230 mg/kg) intraperitoneally. Fifteen minutes after injection, they were injected streptozotocin (85 mg/kg) intravenously from tail vain under anesthesia with ether. After a week, rats were fasted overnight and then glucose tolerance test (2 g/kg) was done.
2) Liquid Meal Tolerance Test
After overnight fasted, the diabetic rats were orally administered a test compound (1 mg/kg), which was dissolved in distilled water or 0.5% aqueous carboxymethylcellulose solution, in the drug-treating group, or distilled water or 0.5% aqueous carboxymethylcellulose solution alone in a control group. Immediately after the compound administration, 17.25 kcal/kg of liquid meal (No. 038, Control diet, assorted with dextrin and maltose; Oriental Yeast Co., Ltd.) was loaded orally. The blood was collected from tail artery immediately before and after administration with the time course, and treated with heparin immediately. The blood was centrifuged, and the plasma was collected to quantify the plasma glucose concentration by glucose oxidase method. The values in the Table are presented as the mean±S.E.

[2] = molecular target: T1, human SGLT1 (Homo sapiens, UniProt P13866); test: Assay for inhibitory effects on human SGLT1 activity (uptake of methyl-α-D-glucopyranoside in CS1-5-11D cells); format: cell-based; details: CHO-K1 cells stably expressing human SGLT1 (CS1-5-11D); 1 mM α-MG uptake, 37° C., 1 hour
T1 construct: expressed in transfected cells
T1 sequence (P13866 1-664): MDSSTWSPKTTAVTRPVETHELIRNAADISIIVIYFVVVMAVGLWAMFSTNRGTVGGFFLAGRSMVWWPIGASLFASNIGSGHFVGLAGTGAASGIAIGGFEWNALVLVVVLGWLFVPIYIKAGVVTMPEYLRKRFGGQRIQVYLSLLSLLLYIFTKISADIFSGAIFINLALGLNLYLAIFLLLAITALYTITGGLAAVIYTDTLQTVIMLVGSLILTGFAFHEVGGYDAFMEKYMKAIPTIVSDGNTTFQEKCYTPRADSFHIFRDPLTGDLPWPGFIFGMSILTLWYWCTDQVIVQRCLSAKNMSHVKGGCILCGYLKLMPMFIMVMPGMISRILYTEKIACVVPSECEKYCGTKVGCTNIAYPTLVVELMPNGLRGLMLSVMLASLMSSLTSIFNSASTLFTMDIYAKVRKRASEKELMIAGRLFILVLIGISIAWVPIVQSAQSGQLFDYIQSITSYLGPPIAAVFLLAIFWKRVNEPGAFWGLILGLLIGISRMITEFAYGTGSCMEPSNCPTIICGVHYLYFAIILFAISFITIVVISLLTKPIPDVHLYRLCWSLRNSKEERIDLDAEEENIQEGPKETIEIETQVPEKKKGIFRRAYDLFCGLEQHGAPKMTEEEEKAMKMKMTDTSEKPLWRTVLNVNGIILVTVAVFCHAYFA
Procedure: Assay for Inhibitory Effects on Human SGLT1 Activity
1) Cloning and Construction of the Vector Expressing Human SGLT1
The cDNA library was prepared for PCR amplification by reverse transcription from total RNA deprived from human small intestine (Ori gene) using oligo-dT as a primer.
2) Establishment of Cell Line Stably Expressing Human SGLT1
The expression vector of human SGLT1 was digested by Sca I into a linear DNA. The linear DNA was transfected into CHO-K1 cells by means of lipofection (Effectene Transfection Reagent: QIAGEN). Neomycin resistant cell lines were selected by culture in the medium containing G418 (1 mg/mL, LIFE TECHNOLOGIES), and then the activity against the uptake of methyl-α-D-glucopyranoside was measured by the method described below. […] CS1-5-11D cells were cultured in the presence of G418 at 200 μg/mL.
3) Measurement of the Inhibitory Activity Against the Uptake of Methyl-α-D-glucopyranoside (α-MG)
CS1-5-11D cells were seeded into a 96-well culture plate at a density of 3×10^4 cells/well and cultured for 2 days, and were used in the uptake assay. A mixture of non-labeled (Sigma) and ^14C-labeled α-MG (Amersham Pharmcia Biotec) was added to the uptake buffer (pH 7.4: containing 140 mM sodium chloride, 2 mM potassium chloride, 1 mM calcium chloride, 1 mM magnesium chloride, 10 mM 2-[4-(2-hydroxyethyl)-1-piperazinyl]ethane sulfonic acid, and 5 mM tris(hydroxymethyl)aminomethane) at the final concentration of 1 mM. A test compound was dissolved in dimethyl sulfoxide, and then appropriately diluted with distilled water. The test compound solution was added to the uptake buffer containing 1 mM α-MG, and designated as a measurement buffer. For the control group, the measurement buffer without any test compound was prepared. For measuring the basal uptake, a basal uptake measurement buffer which contains 140 mM chorine chloride instead of sodium chloride was prepared. After removing the culture medium of CS1-5-11D cells, 180 μL of the pre-treatment buffer (the basal uptake buffer without α-MG) was added to each well and incubated at 37° C. for 10 minutes. After repeating the same treatment, the pre-treatment buffer was removed. To each well was added 75 μL of the measurement buffer or the basal uptake buffer was added and incubated at 37° C. for 1 hour. After removing the measurement buffer, cells were washed twice with 180 μL per well of the washing buffer (the basal uptake buffer containing 10 mM non-labeled α-MG). The cells were solubilized by 75 μL per well of 0.2 mol/L sodium hydroxide. The cell lysates were transferred into PicoPlates (Packard), and then added 150 μL of MicroScint-40 (Packard) and mixed. Radioactivity was measured by means of micro-scintillation counter TopCount (Packard). One hundred was set to the difference between the uptake in the control group and the basal uptake, and the uptake of methyl α-D-glucopyranoside a teach drug concentration were calculated.

[3] = system: Male ICR mice; test: Acute toxicity test; format: in vivo; details: n=5, oral dose of 1 g/kg, observed for 24 hours
Procedure: Male ICR mice (CLEA Japan, Inc.; 32-37 g, n=5), aged 6 weeks old, were fasted for 4 hours.

SMILES | Plasma glucose concentration 0.5 h [1] | Plasma glucose concentration 1 h [1] | IC50 [2] | Number of death [3] | Plasma glucose concentration 0 h ([1]; pretreatment (0 h))
CC(C)c1[nH]nc(O[C@@H]2O[C@H](CO)[C@@H](O)[C@H](O)[C@H]2O)c1Cc1ccc(OCCCN)cc1 [Example 6, 4-{[4-(3-Aminopropoxy)phenyl]methyl}-3-(β-D-glucopyranosyloxy)-5-isopropyl-1H-pyrazole] | 126 ± 12 mg/dL | 140 ± 13 mg/dL | 304 nM |  | 
CC(C)c1[nH]nc(O[C@@H]2O[C@H](CO)[C@@H](O)[C@H](O)[C@H]2O)c1Cc1ccc(OCCCNS(C)(=O)=O)cc1 [Example 10, 3-(β-D-Glucopyranosyloxy)-5-isopropyl-4-({4-[3-(methanesulfonylamino)propoxy]phenyl}methyl)-1H-pyrazole] | 145 ± 5 mg/dL | 164 ± 6 mg/dL | 169 nM |  | 
CC(C)c1[nH]nc(O[C@@H]2O[C@H](CO)[C@@H](O)[C@H](O)[C@H]2O)c1Cc1ccc(OCCCNC(=O)CN)cc1 [Example 13, 4-({4-[3-(2-Aminoacetylamino)propoxy]phenyl}methyl)-3-(β-D-glucopyranosyloxy)-5-isopropyl-1H-pyrazole] | 127 ± 7 mg/dL | 135 ± 7 mg/dL | 267 nM |  | 
CC(C)c1[nH]nc(O[C@@H]2O[C@H](CO)[C@@H](O)[C@H](O)[C@H]2O)c1Cc1ccc(OCCCNC(=O)NC(C)(CO)CO)cc1 [Example 21, 3-(β-D-Glucopyranosyloxy)-4-{[4-(3-{3-[2-hydroxy-1-(hydroxymethyl)-1-(methyl)ethyl]ureido}propoxy)phenyl]-methyl}-5-isopropyl-1H-pyrazole] | 211 ± 22 mg/dL | 242 ± 35 mg/dL | 127 nM |  | 
CC(C)c1[nH]nc(O[C@@H]2O[C@H](CO)[C@@H](O)[C@H](O)[C@H]2O)c1Cc1ccc(OCCCNC(=O)NC(C)(C)CO)cc1 [Example 24, 3-(β-D-Glucopyranosyloxy)-4-{[4-(3-{3-[2-hydroxy-1,1-di(methyl)ethyl]ureido}propoxy)phenyl]methyl}-5-isopropyl-1H-pyrazole] | 210 ± 33 mg/dL | 228 ± 50 mg/dL | 61 nM |  | 
Cc1cc(OCCCN2CCN(CCO)CC2)ccc1Cc1c(O[C@@H]2O[C@H](CO)[C@@H](O)[C@H](O)[C@H]2O)n[nH]c1C(C)C [Example 35, 3-(β-D-Glucopyranosyloxy)-4-[(4-{3-[4-(2-hydroxyethyl)piperazin-1-yl]propoxy}-2-methylphenyl)methyl]-5-isopropyl-1H-pyrazole] | 188 ± 16 mg/dL | 229 ± 25 mg/dL | 160 nM |  | 
CC(C)c1[nH]nc(O[C@@H]2O[C@H](CO)[C@@H](O)[C@H](O)[C@H]2O)c1Cc1ccc(OCCCNC(=NC#N)NCCO)cc1 [Example 37, 4-[(4-{3-[2-Cyano-3-(2-hydroxyethyl)guanidino]propoxy}phenyl)methyl]-3-(β-D-glucopyranosyloxy)-5-isopropyl-1H-pyrazole] | 231 ± 21 mg/dL | 286 ± 31 mg/dL | 158 nM |  | 
Cc1cc(OCCCNCC(N)=O)ccc1Cc1c(O[C@@H]2O[C@H](CO)[C@@H](O)[C@H](O)[C@H]2O)n[nH]c1C(C)C [Example 45] | 169 ± 18 mg/dL | 182 ± 27 mg/dL | 68 nM |  | 
Cc1cc(OCCCNCCC(N)=O)ccc1Cc1c(O[C@@H]2O[C@H](CO)[C@@H](O)[C@H](O)[C@H]2O)n[nH]c1C(C)C [Example 52, 4-[(4-{3-[2-(Carbamoyl)ethylamino]propoxy}-2-methylphenyl)methyl]-3-(β-D-glucopyranosyloxy)-5-isopropyl-1H-pyrazole] | 163 ± 5 mg/dL | 176 ± 10 mg/dL |  | 0/5 | 
Cc1cc(OCCCNC(=N)N)ccc1Cc1c(O[C@@H]2O[C@H](CO)[C@@H](O)[C@H](O)[C@H]2O)n[nH]c1C(C)C [Example 55, 3-(β-D-Glucopyranosyloxy)-4-{[4-(3-guanidinopropoxy)-2-methylphenyl]methyl}-5-isopropyl-1H-pyrazole] | 200 ± 16 mg/dL | 211 ± 18 mg/dL | 98 nM |  | 
Cc1cc(OCCNC(=N)N)ccc1Cc1c(O[C@@H]2O[C@H](CO)[C@@H](O)[C@H](O)[C@H]2O)n[nH]c1C(C)C [Example 56, 3-(β-D-Glucopyranosyloxy)-4-{[4-(2-guanidinoethoxy)-2-methylphenyl]methyl}-5-isopropyl-1H-pyrazole] | 146 ± 7 mg/dL | 165 ± 17 mg/dL | 38 nM |  | 
Cc1cc(OCCCNC(CO)CO)ccc1Cc1c(O[C@@H]2O[C@H](CO)[C@@H](O)[C@H](O)[C@H]2O)n[nH]c1C(C)C [Example 59, 3-(β-D-Glucopyranosyloxy)-4-[(4-(3-[2-hydroxy-1-(hydroxymethyl)ethylamino]propoxy)-2-methylphenyl)methyl]-5-isopropyl-1H-pyrazole] | 143 ± 4 mg/dL | 154 ± 13 mg/dL | 71 nM |  | 
CC(C)c1[nH]nc(O[C@@H]2O[C@H](CO)[C@@H](O)[C@H](O)[C@H]2O)c1Cc1ccc(OCCCNCc2cccnc2)cc1 [Example 64, 3-(β-D-Glucopyranosyloxy)-5-isopropyl-4-({4-[3-(3-pyridyl-methylamino)propoxy]phenyl}methyl)-1H-pyrazole] | 141 ± 12 mg/dL | 148 ± 22 mg/dL | 178 nM |  | 116 ± 2 mg/dL
